Data as given in ChEMBL document CHEMBL5104119, “Miniproteins in medicinal chemistry” (Bioorg Med Chem Lett, 2022).

Tests used:
[1] = Antiproliferative activity against human PBMC cells assessed as cell growth inhibition incubated for 10 mins by CFSE staining based flow cytometric analysis; format: toxicity
[2] = system: T-cell line; experiment: Immunomodulatory activity in human T cells assessed as inhibition of IL-2 production incubated for 15 mins by FACSCalibur flow cytometry analysis; format: functional, cell-based; details: 0.25 h
[3] = target: Neuronal acetylcholine receptor; alpha9/alpha10 (Homo sapiens, UniProt Q9GZZ6+Q9UGM1); experiment: Inhibition of human nAChR alpha9alpha10 expressed in Xenopus laevis oocytes holding potential of -70 mV by voltage-clamp based electrophysiological method; format: cell-based
[4] = system: Human immunodeficiency virus 1; experiment: Antiviral activity against recombinant luciferase-expressing HIV-1 infected in HEK293T cells incubated for 48 hr by luciferase assay based luminometer analysis; format: functional, organism-based; details: Human immunodeficiency virus 1, HEK-293T
[5] = system: Human immunodeficiency virus; experiment: Antiviral activity against HIV infected in human HeLa cells expressing CD4-LTR-beta-gal assessed as inhibition of syncytia formation measured after 15 hrs by 5-bromo-4-chloro-3-indolyl-beta-D-galactoside staining based colorimetry assay; format: functional, organism-based; details: Human immunodeficiency virus 1, HeLa

Sequence of Neuronal acetylcholine receptor; alpha9/alpha10 (Q9UGM1 whole entry): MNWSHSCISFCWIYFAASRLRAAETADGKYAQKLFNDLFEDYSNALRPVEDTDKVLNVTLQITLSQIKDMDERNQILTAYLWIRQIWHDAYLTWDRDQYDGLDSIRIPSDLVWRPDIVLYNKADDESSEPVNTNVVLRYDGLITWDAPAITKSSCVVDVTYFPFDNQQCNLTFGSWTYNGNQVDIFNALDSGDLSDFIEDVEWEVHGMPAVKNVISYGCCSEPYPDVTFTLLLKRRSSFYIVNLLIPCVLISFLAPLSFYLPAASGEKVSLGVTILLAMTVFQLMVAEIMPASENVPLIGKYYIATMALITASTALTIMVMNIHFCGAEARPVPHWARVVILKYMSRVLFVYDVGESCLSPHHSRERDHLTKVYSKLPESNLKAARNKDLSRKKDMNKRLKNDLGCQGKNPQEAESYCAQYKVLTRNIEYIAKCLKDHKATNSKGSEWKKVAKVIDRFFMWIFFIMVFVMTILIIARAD
Sequence of Neuronal acetylcholine receptor; alpha9/alpha10 (Q9GZZ6 whole entry): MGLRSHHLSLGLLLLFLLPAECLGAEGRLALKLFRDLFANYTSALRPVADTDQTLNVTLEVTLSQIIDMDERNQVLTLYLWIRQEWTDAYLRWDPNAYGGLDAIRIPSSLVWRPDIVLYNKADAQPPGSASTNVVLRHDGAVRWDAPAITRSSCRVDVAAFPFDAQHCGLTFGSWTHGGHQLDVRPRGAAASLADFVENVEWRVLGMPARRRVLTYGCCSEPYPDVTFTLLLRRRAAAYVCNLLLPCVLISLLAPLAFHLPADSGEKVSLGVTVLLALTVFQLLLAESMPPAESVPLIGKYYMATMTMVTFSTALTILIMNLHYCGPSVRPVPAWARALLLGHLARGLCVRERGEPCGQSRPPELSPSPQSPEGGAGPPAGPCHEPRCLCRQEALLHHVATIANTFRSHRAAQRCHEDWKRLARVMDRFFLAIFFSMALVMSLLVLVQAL

In the case of `CC(C)C[C@@H]1NC(=O)CNC(=O)[C@H](CC(N)=O)NC(=O)[C@H](CCCNC(=N)N)NC(=O)[C@H]([C@@H](C)O)NC(=O)[C@@H]2CSSC[C@@H]3NC(=O)[C@H]([C@@H](C)O)NC(=O)CNC(=O)CNC(=O)[C@H](C(C)C)NC(=O)[C@@H]4CSSC[C@H](NC(=O)[C@H]([C@@H](C)O)NC(=O)[C@H](CSSC[C@H](NC(=O)[C@H](C(C)C)NC(=O)[C@@H]5CCCN5C1=O)C(=O)NCC(=O)N[C@@H](CCC(=O)O)C(=O)N[C@@H]([C@@H](C)O)C(=O)N4)NC(=O)CNC(=O)[C@@H]1CCCN1C(=O)[C@H]([C@@H](C)O)NC(=O)[C@H](CC(N)=O)NC3=O)C(=O)N[C@@H](CO)C(=O)N[C@@H](Cc1c[nH]c3ccccc13)C(=O)N1CCC[C@H]1C(=O)N[C@@H](C(C)C)C(=O)N2`, the IC50 at 10 min [1] is reported as 2900 nM.

Work on `CC(C)C[C@@H]1NC(=O)CNC(=O)[C@H](CC(N)=O)NC(=O)[C@H](CCCNC(=N)N)NC(=O)[C@H]([C@@H](C)O)NC(=O)[C@@H]2CSSC[C@@H]3NC(=O)[C@H]([C@@H](C)O)NC(=O)CNC(=O)CNC(=O)[C@H](C(C)C)NC(=O)[C@@H]4CSSC[C@H](NC(=O)[C@H](CCCCN)NC(=O)[C@H](CSSC[C@H](NC(=O)[C@H](C(C)C)NC(=O)[C@@H]5CCCN5C1=O)C(=O)NCC(=O)N[C@@H](CCC(=O)O)C(=O)N[C@@H]([C@@H](C)O)C(=O)N4)NC(=O)CNC(=O)[C@@H]1CCCN1C(=O)[C@H]([C@@H](C)O)NC(=O)[C@H](CC(N)=O)NC3=O)C(=O)N[C@@H](CO)C(=O)N[C@@H](Cc1c[nH]c3ccccc13)C(=O)N1CCC[C@H]1C(=O)N[C@@H](C(C)C)C(=O)N2` yielded an IC50 [2] of 1900 nM.

`C[C@@H](O)[C@@H]1NC(=O)[C@@H]2CSSC[C@H](C(=O)N[C@@H](Cc3ccc(O)cc3)C(=O)O)NC(=O)[C@H](CCC(N)=O)NC(=O)[C@H](Cc3ccc(O)c(I)c3)NC(=O)[C@H](CCCNC(=N)N)NC(=O)[C@H](CSSC[C@H](NC(=O)CN)C(=O)N2)NC(=O)[C@H](CCCNC(N)=O)NC(=O)[C@@H]2CCCN2C(=O)[C@H](CC(=O)O)NC1=O` showed an IC50 [3] of 1.5 nM.

For Ac-WMEWDREINNYTSLIEESQNQQEKNEQELL-NH2, the IC50 [4] was 2.1 nM and the IC50 [5] was 0.55 nM.
